{
  "source": "patent US9895346B2",
  "about": "“Applications of substituent benzyloxy group containing ether compounds for preparing antitumor drugs” (Sinochem Corporation, priority 2013, dated 2018)",
  "key": {"[1]": {"system": "bladder cancer cell line J82", "assay": "In vitro cell inhibition assay (crystal violet), bladder cancer J82", "assay_type": "cell-based, human", "source_text": "(§1) In vitro Cell inhibition assay is as follows:\n(§2) The human cancer cell lines used for this assay were bladder cancer J82, T24, prostate cancer LNCap, PC-3, lung cancer A549, H157, H460, H520, colon cancer HCT8, HCT116, RkO, and leukemia HL-60, etc.\n(§3) In vitro cell culture technology was selected for the determination of inhibition rate bladder cancer cell lines J82 and T24, prostate cancer cell lines LNCap and PC-3, lung cancer cell lines A549, H157, H460 and H520. 1000 to 3000 cells were inoculated to 24-well plate, followed by addition of 1 mL culture medium well known to researchers in this field to each well, the cells were cultured in 5% incubator for 24 hours at 37° C., then the different concentration compounds and controls were added to each well. It should be noted that the added volume is not more than 0.5% of total volume. After completion of addition, the cells continued being cultured in incubator for one week, the culture medium was removed and washed by cold PBS of 1 mL once, and then fixed for 10 minutes at room temperature with 1% formalin, followed by wash with PBS of 1 mL. After fixation, stain was carried out with 0.1% crystal violet for 30 minutes. 0.1% crystal violet was recycled. The stained cells were washed gently with deionized water, dried at room temperature and kepted. The inhibition rate was calculated according to the foiling equation. The controls are Selumetinib (AZD6244), Gefitinib, Cisplatin. Inhibition rate=number of left cells each treatment/number of left cells of untreated control×100%"}, "[2]": {"system": "colon cancer HCT116", "assay": "In vitro cell inhibition assay, colon cancer HCT116", "assay_type": "cell-based, human", "source_text": "as §1, §2"}, "[3]": {"system": "colon cancer RkO", "assay": "In vitro cell inhibition assay, colon cancer RkO", "assay_type": "cell-based, human", "source_text": "as §1, §2"}, "[4]": {"system": "human leukemia HL-60 cells", "assay": "Proliferation inhibition of human leukemia HL-60 cells, MTT method", "assay_type": "cell-based", "conditions": "48 h incubation, OPTI-MEM medium", "procedure,_shortened": "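Cells at 5×10^4 cells/mL cultured overnight at 37 °C, 5% CO2, then exposed to compounds at different concentrations for 48 h. MTT added for 4 h, formazan dissolved in DMSO and absorbance read at 570 nm to give inhibition rate.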"}, "[5]": {"system": "lung cancer cell line H460", "assay": "In vitro cell inhibition assay (crystal violet), lung cancer H460", "assay_type": "cell-based, human", "procedure,_shortened": "(§4)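 1000-3000 cells per well grown 24 h at 37 °C, then exposed to compound for one week (vehicle ≤0.5% of volume). Cells formalin-fixed and stained with 0.1% crystal violet. Inhibition rate = remaining cells in treated wells / remaining cells in untreated control × 100%.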"}, "[6]": {"system": "colon cancer HCT8", "assay": "In vitro cell inhibition assay, colon cancer HCT8", "assay_type": "cell-based, human", "source_text": "as §1, §2"}, "[7]": {"system": "lung cancer cell line A549", "assay": "In vitro cell inhibition assay (crystal violet), lung cancer A549", "assay_type": "cell-based, human", "procedure,_shortened": "as §4"}, "[8]": {"system": "prostate cancer cell line PC-3", "assay": "In vitro cell inhibition assay (crystal violet), prostate cancer PC-3", "assay_type": "cell-based, human", "source_text": "as §1, §2, §3"}, "[9]": {"system": "bladder cancer cell line T24", "assay": "In vitro cell inhibition assay (crystal violet), bladder cancer T24", "assay_type": "cell-based, human", "source_text": "as §1, §2, §3"}, "[10]": {"system": "lung cancer cell line H520", "assay": "In vitro cell inhibition assay (crystal violet), lung cancer H520", "assay_type": "cell-based, human", "procedure,_shortened": "as §4"}, "[11]": {"system": "lung cancer cell line H157", "assay": "In vitro cell inhibition assay (crystal violet), lung cancer H157", "assay_type": "cell-based, human", "source_text": "as §1, §2, §3"}, "[12]": {"system": "prostate cancer cell line LNCap", "assay": "In vitro cell inhibition assay (crystal violet), prostate cancer LNCap", "assay_type": "cell-based, human", "source_text": "as §1, §2, §3"}},
  "data": [
    {"smiles": "CCCCc1c(C)c2ccc(OCc3ccccc3/C(=C\\OC)C(=O)OC)cc2oc1=O", "note": "[Compound 28-72, coumoxystrobin]", "values": [
      {"measurement": "Inhibition rate on human cancer cells", "setting": "[1]; J82, 0.25 μM", "value": 70, "unit": "%"},
      {"measurement": "Inhibition rate on human cancer cells", "setting": "[1]; J82, 0.5 μM", "value": 90, "unit": "%"},
      {"measurement": "Inhibition rate on human cancer cells", "setting": "[1]; J82, 1.0 μM", "value": 95, "unit": "%"},
      {"measurement": "Inhibition rate on human cancer cells", "setting": "[1]; J82, 2.5 μM", "value": 100, "unit": "%"},
      {"measurement": "Inhibition rate on human cancer cells", "setting": "[1]; J82, 5.0 μM", "value": 100, "unit": "%"},
      {"measurement": "Inhibition rate on human cancer cells", "setting": "[2]; HCT 116, 0.25 μM", "value": 80, "unit": "%"},
      {"measurement": "Inhibition rate on human cancer cells", "setting": "[2]; HCT 116, 0.5 μM", "value": 95, "unit": "%"},
      {"measurement": "Inhibition rate on human cancer cells", "setting": "[2]; HCT 116, 1.0 μM", "value": 99, "unit": "%"},
      {"measurement": "Inhibition rate on human cancer cells", "setting": "[2]; HCT 116, 2.5 μM", "value": 100, "unit": "%"},
      {"measurement": "Inhibition rate on human cancer cells", "setting": "[2]; HCT 116, 5.0 μM", "value": 100, "unit": "%"},
      {"measurement": "Inhibition rate on human cancer cells", "setting": "[3]; 0.25 μM", "value": 95, "unit": "%"},
      {"measurement": "Inhibition rate on human cancer cells", "setting": "[3]; 0.5 μM", "value": 100, "unit": "%"},
      {"measurement": "Inhibition rate on human cancer cells", "setting": "[3]; 1.0 μM", "value": 100, "unit": "%"},
      {"measurement": "Inhibition rate on human cancer cells", "setting": "[3]; 2.5 μM", "value": 100, "unit": "%"},
      {"measurement": "Inhibition rate on human cancer cells", "setting": "[3]; 5.0 μM", "value": 100, "unit": "%"},
      {"measurement": "Proliferation inhibitory effect on human leukemia HL-60 cell (%)", "setting": "[4]; concentration 1 μM", "value": 45.3, "unit": "%"},
      {"measurement": "Proliferation inhibitory effect on human leukemia HL-60 cell (%)", "setting": "[4]; concentration 10 μM", "value": 47.9, "unit": "%"},
      {"measurement": "Proliferation inhibitory effect on human leukemia HL-60 cell (%)", "setting": "[4]; concentration 100 μM", "value": 54.4, "unit": "%"},
      {"measurement": "Inhibition rate on human cancer cells", "setting": "[5]; H460, 0.25 μM", "value": 95, "unit": "%"},
      {"measurement": "Inhibition rate on human cancer cells", "setting": "[5]; H460, 0.5 μM", "value": 100, "unit": "%"},
      {"measurement": "Inhibition rate on human cancer cells", "setting": "[5]; H460, 1.0 μM", "value": 100, "unit": "%"},
      {"measurement": "Inhibition rate on human cancer cells", "setting": "[5]; H460, 2.5 μM", "value": 100, "unit": "%"},
      {"measurement": "Inhibition rate on human cancer cells", "setting": "[5]; H460, 5.0 μM", "value": 100, "unit": "%"},
      {"measurement": "Inhibition rate on human cancer cells", "setting": "[6]; HCT 8, 0.5 μM", "value": 95, "unit": "%"},
      {"measurement": "Inhibition rate on human cancer cells", "setting": "[6]; HCT 8, 1.0 μM", "value": 100, "unit": "%"},
      {"measurement": "Inhibition rate on human cancer cells", "setting": "[6]; HCT 8, 2.5 μM", "value": 100, "unit": "%"},
      {"measurement": "Inhibition rate on human cancer cells", "setting": "[6]; HCT 8, 5.0 μM", "value": 100, "unit": "%"},
      {"measurement": "Inhibition rate on human cancer cells", "setting": "[7]; A549, 0.5 μM", "value": 90, "unit": "%"},
      {"measurement": "Inhibition rate on human cancer cells", "setting": "[7]; A549, 1.0 μM", "value": 95, "unit": "%"},
      {"measurement": "Inhibition rate on human cancer cells", "setting": "[7]; A549, 2.5 μM", "value": 100, "unit": "%"},
      {"measurement": "Inhibition rate on human cancer cells", "setting": "[7]; A549, 5.0 μM", "value": 100, "unit": "%"},
      {"measurement": "Inhibition rate on human cancer cells", "setting": "[8]; PC-3, 0.25 μM", "value": 100, "unit": "%"},
      {"measurement": "Inhibition rate on human cancer cells", "setting": "[8]; PC-3, 0.5 μM", "value": 100, "unit": "%"},
      {"measurement": "Inhibition rate on human cancer cells", "setting": "[8]; PC-3, 1.0 μM", "value": 100, "unit": "%"},
      {"measurement": "Inhibition rate on human cancer cells", "setting": "[8]; PC-3, 2.5 μM", "value": 100, "unit": "%"},
      {"measurement": "Inhibition rate on human cancer cells", "setting": "[8]; PC-3, 5.0 μM", "value": 100, "unit": "%"},
      {"measurement": "Inhibition rate on human cancer cells", "setting": "[9]; T24, 0.25 μM", "value": 100, "unit": "%"},
      {"measurement": "Inhibition rate on human cancer cells", "setting": "[9]; T24, 0.5 μM", "value": 100, "unit": "%"},
      {"measurement": "Inhibition rate on human cancer cells", "setting": "[9]; T24, 1.0 μM", "value": 100, "unit": "%"},
      {"measurement": "Inhibition rate on human cancer cells", "setting": "[9]; T24, 2.5 μM", "value": 100, "unit": "%"},
      {"measurement": "Inhibition rate on human cancer cells", "setting": "[9]; T24, 5.0 μM", "value": 100, "unit": "%"},
      {"measurement": "Inhibition rate on human cancer cells", "setting": "[10]; H520, 0.25 μM", "value": ">90", "unit": "%"},
      {"measurement": "Inhibition rate on human cancer cells", "setting": "[10]; H520, 0.5 μM", "value": 100, "unit": "%"},
      {"measurement": "Inhibition rate on human cancer cells", "setting": "[10]; H520, 1.0 μM", "value": 100, "unit": "%"},
      {"measurement": "Inhibition rate on human cancer cells", "setting": "[10]; H520, 2.5 μM", "value": 100, "unit": "%"},
      {"measurement": "Inhibition rate on human cancer cells", "setting": "[10]; H520, 5.0 μM", "value": 100, "unit": "%"},
      {"measurement": "Inhibition rate on human cancer cells", "setting": "[11]; H157, 0.25 μM", "value": ">90", "unit": "%"},
      {"measurement": "Inhibition rate on human cancer cells", "setting": "[11]; H157, 0.5 μM", "value": 100, "unit": "%"},
      {"measurement": "Inhibition rate on human cancer cells", "setting": "[11]; H157, 1.0 μM", "value": 100, "unit": "%"},
      {"measurement": "Inhibition rate on human cancer cells", "setting": "[11]; H157, 2.5 μM", "value": 100, "unit": "%"},
      {"measurement": "Inhibition rate on human cancer cells", "setting": "[11]; H157, 5.0 μM", "value": 100, "unit": "%"},
      {"measurement": "Inhibition rate on human cancer cells", "setting": "[12]; 0.25 μM", "value": 100, "unit": "%"},
      {"measurement": "Inhibition rate on human cancer cells", "setting": "[12]; 0.5 μM", "value": 100, "unit": "%"},
      {"measurement": "Inhibition rate on human cancer cells", "setting": "[12]; 1.0 μM", "value": 100, "unit": "%"},
      {"measurement": "Inhibition rate on human cancer cells", "setting": "[12]; 2.5 μM", "value": 100, "unit": "%"},
      {"measurement": "Inhibition rate on human cancer cells", "setting": "[12]; 5.0 μM", "value": 100, "unit": "%"}
    ]}
  ]
}
